In the assay the test system is BDF1 mice, P388 leukemia ip, median survival T/C. As to the kind of experiment: NCI In Vivo Anticancer Drug Screen. Data for tumor model P388 Leukemia (intraperitoneal) in B6D2F1 (BDF1) mice. The conditions noted are these: endpoint: median survival time, higher = longer survival. Put shortly:
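Reported as T/C, where T is the survival measurement in dosed animals and C the same measurement in vehicle controls.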

Where [1] appears, read: dose: 100.0 mg/kg/injection, schedule: Q04DX003 (ip), vehicle: saline with Tween-80.
Setting [2] is: dose: 200.0 mg/kg/injection, schedule: Q04DX003 (ip), vehicle: saline with Tween-80.
[3] abbreviates: dose: 400.0 mg/kg/injection, schedule: Q04DX003 (ip), vehicle: saline with Tween-80.
The mark [4] stands for this setting: dose: 50.0 mg/kg/injection, schedule: Q01DX009 (ip), vehicle: saline.
[5] abbreviates: dose: 100.0 mg/kg/injection, schedule: Q04DX003 (ip), vehicle: saline.
Setting [6] is: dose: 200.0 mg/kg/injection, schedule: Q04DX003 (ip), vehicle: saline.
[7] abbreviates: dose: 100.0 mg/kg/injection, schedule: Q01DX009 (ip), vehicle: saline with Tween-80.
The mark [8] stands for this setting: dose: 200.0 mg/kg/injection, schedule: Q01DX009 (ip), vehicle: saline with Tween-80.
Setting [9] is: dose: 400.0 mg/kg/injection, schedule: Q01DX009 (ip), vehicle: saline with Tween-80.
Setting [10] is: dose: 100.0 mg/kg/injection, schedule: Q01DX009 (ip), vehicle: saline.
Setting [11] is: dose: 50.0 mg/kg/injection, schedule: Q01DX005 (ip), vehicle: saline with Tween-80.
Where [12] appears, read: dose: 100.0 mg/kg/injection, schedule: Q01DX005 (ip), vehicle: saline with Tween-80.
[13] abbreviates: dose: 50.0 mg/kg/injection, schedule: Q01DX009 (ip), vehicle: saline with Tween-80.

The record followed here is PubChem BioAssay AID328 (DTP/NCI, 2004).

Where “and” joins values, the source holds several entries; their conditions need not be identical. Equal values may be shown once. Inconclusive results and toxic doses are left out. Residues, ends and D or L forms follow the SMILES beside them. *: point of attachment. Cbz = O=C(OCc1ccccc1)*

On to `C=C(C)C(=O)O[C@H]1CC2=CC(CC(C)=C[C@H]3OC(=O)C(=C)C13)OC2=O` (stereo not given in full), for which the T/C is 109 % of control (dose: 12.5 mg/kg/injection, schedule: Q01DX001 (ip), vehicle: saline with Tween-80); 120 % of control (dose: 25.0 mg/kg/injection, schedule: Q01DX001 (ip), vehicle: saline with Tween-80); 107 % of control and 111 % of control (dose: 50.0 mg/kg/injection, schedule: Q01DX001 (ip), vehicle: saline with Tween-80).

On to `CC(SC(C)c1ccccc1)c1ccccc1` (stereo not given), for which the T/C was 108 % of control under setting [1], 108 % of control under setting [2] and 116 % of control under setting [3].

Take `CCc1ccc(C(=O)C2CC2)cc1`: the T/C was 104 % of control under setting [1]; 108 % of control (dose: 133.0 mg/kg/injection, schedule: Q01DX008 (ip), vehicle: saline with Tween-80); 116 % of control (dose: 200.0 mg/kg/injection, schedule: Q01DX008 (ip), vehicle: saline with Tween-80); 112 % of control under setting [2]; 115 % of control (dose: 300.0 mg/kg/injection, schedule: Q01DX008 (ip), vehicle: saline with Tween-80); 104 % of control under setting [3].

For the compound `NNC(=O)NC(=O)NN`, the T/C by setting is: under setting [4], 104 % of control; under setting [5], 113 % of control; under setting [6], 113 % of control.

Regarding `C=CCCCCCCCCC(=O)NCc1cccnc1`, the T/C is, setting by setting: under setting [7], 86 % of control; under setting [8], 95 % of control; under setting [9], 100 % of control.

Regarding `Nc1ncn(C2CC(O)C(CO)O2)c(=O)n1` (stereo not given), the T/C is 119 % of control (dose: 0.03 mg/kg/injection, schedule: Q01DX009 (ip), vehicle: saline); 121 % of control (dose: 0.05 mg/kg/injection, schedule: Q01DX009 (ip), vehicle: saline); 190 % of control (dose: 0.1 mg/kg/injection, schedule: Q01DX009 (ip), vehicle: Klucel (hydroxypropylcellulose) (HPC)); 160 % of control and 206 % of control (dose: 0.2 mg/kg/injection, schedule: Q01DX009 (ip), vehicle: Klucel (hydroxypropylcellulose) (HPC)); 175 % of control and 190 % of control (dose: 0.4 mg/kg/injection, schedule: Q01DX009 (ip), vehicle: Klucel (hydroxypropylcellulose) (HPC)); 150 % of control (dose: 0.4 mg/kg/injection, schedule: Q01DX009 (ip), vehicle: saline). For the same compound, the T/C (dose: 0.8 mg/kg/injection, schedule: Q01DX009 (ip), vehicle: Klucel (hydroxypropylcellulose) (HPC)) was 109 % of control and 212 % of control; the T/C (dose: 0.8 mg/kg/injection, schedule: Q01DX009 (ip), vehicle: saline) is 188 % of control; the T/C (dose: 1.56 mg/kg/injection, schedule: Q01DX009 (ip), vehicle: saline) is 106 % of control; the T/C (dose: 3.12 mg/kg/injection, schedule: Q01DX009 (ip), vehicle: saline) was 94 % of control; the T/C (dose: 3.12 mg/kg/injection, schedule: Q04DX003 (ip), vehicle: saline) was 235 % of control; the T/C (dose: 6.25 mg/kg/injection, schedule: Q01DX009 (ip), vehicle: saline) was 90 % of control. Moreover, the T/C was 265 % of control (dose: 6.25 mg/kg/injection, schedule: Q04DX003 (ip), vehicle: saline) and 160 % of control (dose: 12.5 mg/kg/injection, schedule: Q04DX003 (ip), vehicle: saline).

As to `C=C1C(=O)OC2CC3(C)CC(O)C(O)C(=C)C3CC12` (stereo not given), the T/C by setting is: (dose: 25.0 mg/kg/injection, schedule: Q01DX009 (ip), vehicle: saline) 104 % of control; under setting [4], 104 % of control; under setting [10], 104 % of control.

On to `COc1ccc(CC2c3cc(OC)c(OC)cc3CCN2C(=O)c2ccccc2)cc1OC` (stereo not given), for which the T/C under setting [11] was 91 % of control and the T/C under setting [12] was 91 % of control.

On to `O=c1[nH]c2cc(Cl)c(Cl)cc2o1`, for which the T/C runs as follows: (dose: 50.0 mg/kg/injection, schedule: Q01DX009 (ip), vehicle: Klucel (hydroxypropylcellulose) (HPC)) 115 % of control; under setting [13], 104 % of control; (dose: 100.0 mg/kg/injection, schedule: Q01DX009 (ip), vehicle: Klucel (hydroxypropylcellulose) (HPC)) 115 % of control; under setting [7], 100 % of control; under setting [1], 100 % of control; (dose: 200.0 mg/kg/injection, schedule: Q01DX009 (ip), vehicle: Klucel (hydroxypropylcellulose) (HPC)) 110 % of control. Also, the T/C by setting is: under setting [8], 104 % of control; under setting [2], 95 % of control.

`CCOC(=O)C(=CC(CC)(C(=O)OCC)C(=O)OCC)C(=O)OCC`: the T/C was 95 % of control under setting [10]; 104 % of control (dose: 200.0 mg/kg/injection, schedule: Q01DX009 (ip), vehicle: saline); 104 % of control (dose: 400.0 mg/kg/injection, schedule: Q01DX009 (ip), vehicle: saline).

As to `Nc1nc(N)c2cc([N+](=O)[O-])ccc2n1`, the T/C reads like this: under setting [13], 96 % of control; under setting [7], 101 % of control; under setting [8], 99 % of control; under setting [9], 95 % of control.

Take `O=C(O)C(Cc1ccccc1)NC(=O)C1CCCN1C(=O)OCc1ccccc1` (stereo not drawn) (Cbz-Pro-Phe-OH; configuration not given here): the T/C is 97 % of control under setting [11]; 101 % of control under setting [12]; 95 % of control (dose: 200.0 mg/kg/injection, schedule: Q01DX005 (ip), vehicle: saline with Tween-80).

For the compound `N=C1C=C[C@]2(O)C[C@H](Cl)CN12`, the T/C runs as follows: (dose: 0.38 mg/kg/injection, schedule: Q01DX009 (ip), vehicle: saline) 104 % of control; (dose: 0.75 mg/kg/injection, schedule: Q01DX009 (ip), vehicle: saline) 104 % of control; (dose: 1.5 mg/kg/injection, schedule: Q01DX009 (ip), vehicle: saline) 114 % of control; (dose: 3.0 mg/kg/injection, schedule: Q01DX009 (ip), vehicle: saline) 98 % of control; (dose: 6.0 mg/kg/injection, schedule: Q01DX009 (ip), vehicle: saline) 117 % of control.

On to `Nc1nncs1`, for which the T/C (dose: 7.8 mg/kg/injection, schedule: Q01DX010 (ip), vehicle: saline) is 118 % of control; the T/C (dose: 12.5 mg/kg/injection, schedule: Q01DX010 (ip), vehicle: saline) was 100 % of control; the T/C (dose: 15.6 mg/kg/injection, schedule: Q01DX010 (ip), vehicle: saline) was 154 % of control; the T/C (dose: 25.0 mg/kg/injection, schedule: Q01DX010 (ip), vehicle: saline) was 163 % of control; the T/C (dose: 25.0 mg/kg/injection, schedule: Q04DX003 (ip), vehicle: saline) was 118 % of control; the T/C (dose: 50.0 mg/kg/injection, schedule: Q01DX010 (ip), vehicle: saline) was 190 % of control. Moreover, the T/C is, setting by setting: (dose: 100.0 mg/kg/injection, schedule: Q01DX010 (ip), vehicle: saline) 100 % of control; under setting [5], 172 % of control; (dose: 108.0 mg/kg/injection, schedule: Q04DX003 (ip), vehicle: saline) 154 % of control; (dose: 173.0 mg/kg/injection, schedule: Q04DX003 (ip), vehicle: other) 179 % of control; (dose: 180.0 mg/kg/injection, schedule: Q04DX003 (ip), vehicle: saline) 208 % of control; under setting [6], 181 % of control. For the same compound, where the note is “dose: 288.0 mg/kg/injection, schedule: Q04DX003 (ip), vehicle: other”, the T/C is 212 % of control.

Regarding `O=S(=O)(Nc1ccc(C(F)(F)F)cc1)c1ccc(C(F)(F)F)cc1`, the T/C (dose: 50.0 mg/kg/injection, schedule: Q04DX003 (ip), vehicle: Klucel (hydroxypropylcellulose) (HPC)) was 90 % of control and the T/C (dose: 100.0 mg/kg/injection, schedule: Q04DX003 (ip), vehicle: Klucel (hydroxypropylcellulose) (HPC)) is 90 % of control.

Consider `Cc1ccc(CNc2cc(C)ccn2)cc1`, for which the T/C by setting is: (dose: 50.0 mg/kg/injection, schedule: Q04DX003 (ip), vehicle: saline with Tween-80) 105 % of control; under setting [1], 110 % of control; under setting [2], 110 % of control.

Take `Cc1c2oc3c(C)ccc(C(=O)NCCCc4ccccc4)c3nc-2c(C(=O)NCCCc2ccccc2)c(N)c1=O`: the T/C by setting is: (dose: 100.0 mg/kg/injection, schedule: Q04DX002 (ip), vehicle: DMSO) 100 % of control; (dose: 200.0 mg/kg/injection, schedule: Q04DX002 (ip), vehicle: DMSO) 90 % of control.
